Literature values as cited in patent US8758840B2, “Method of treating areas of osteoarthritis in animals and human beings with milkweed seed oil” (Natural Fibers Corporation, priority 2011, dated 2014).

Test system: pro-inflammatory and matrix degradation mediators involved in osteoarthritis-induced cartilage degradation
Settings: laboratory tests, Gabay et al. 2010

SMILES: CC[C@H](/C=C/[C@@H](C)[C@H]1CC[C@H]2[C@@H]3CC=C4C[C@@H](O)CC[C@]4(C)[C@H]3CC[C@]12C)C(C)C [stigmasterol]
- effect on pro-inflammatory and matrix degradation mediators: inhibits several pro-inflammatory and matrix degradation mediators
